From PMC10810651, “Discovery of novel and potent CDK8 inhibitors for the treatment of acute myeloid leukaemia” (Journal of Enzyme Inhibition and Medicinal Chemistry, 2024)
Where two headings read alike, the source gives them in different places.

Key:
CDK8 = CDK8 (Homo sapiens, UniProt P49336); experiment: CDK8 enzyme activity assay (ADP-Glo Kinase Assay); assay type: biochemical; conditions: means ± SD; for inhibition at 0.2 µM: CDK8, 200 nM, two experiments, read-out: Inhibition rate @ 200 nM (%); for IC50: three experiments
Chain of CDK8 (P49336 whole entry): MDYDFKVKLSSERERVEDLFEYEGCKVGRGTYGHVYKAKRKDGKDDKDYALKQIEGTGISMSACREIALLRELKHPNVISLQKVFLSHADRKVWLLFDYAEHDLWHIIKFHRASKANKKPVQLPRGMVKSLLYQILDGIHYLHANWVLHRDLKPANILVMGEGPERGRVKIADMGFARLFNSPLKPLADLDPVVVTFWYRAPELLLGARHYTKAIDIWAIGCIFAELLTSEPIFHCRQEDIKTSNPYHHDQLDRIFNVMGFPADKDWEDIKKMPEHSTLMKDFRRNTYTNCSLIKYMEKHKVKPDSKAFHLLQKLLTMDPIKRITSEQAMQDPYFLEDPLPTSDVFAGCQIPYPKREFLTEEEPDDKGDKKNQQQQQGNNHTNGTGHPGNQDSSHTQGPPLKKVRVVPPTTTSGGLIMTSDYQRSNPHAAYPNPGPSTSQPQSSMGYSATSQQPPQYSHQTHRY
Chain of CDK8 (P24863 whole entry partner): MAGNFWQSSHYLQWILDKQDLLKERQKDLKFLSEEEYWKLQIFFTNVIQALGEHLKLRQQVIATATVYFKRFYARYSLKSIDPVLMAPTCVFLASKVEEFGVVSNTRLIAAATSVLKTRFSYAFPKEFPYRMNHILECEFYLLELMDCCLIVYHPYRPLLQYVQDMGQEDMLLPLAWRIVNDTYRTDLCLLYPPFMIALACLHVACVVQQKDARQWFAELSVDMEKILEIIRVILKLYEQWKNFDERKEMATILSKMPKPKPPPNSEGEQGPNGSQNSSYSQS
Method: Some of them with high inhibition rates were further measured for their IC50 values. Compound SEL-120 34 A was selected as a positive control. [table] [table] page 14: CO2 atmosphere incubator for 24 h. Then, medium with compound at the concentrations of 100, 20, 4, 0.8, 0.016 μM was added into each well for another 48 h and incubated with CCK-8 (10 μL) for 2 h at 37 °C. The absorbance value at 450 nm was measured by the microplate reader (PerkinElmer Envision). 1.4 Kinase Assay The kinase inhibition was detected by ADP-Glo™ Kinase Assay (Promega) using a black 384-well plate. The active CDK8 kinase was diluted in mixture (5 ng enzyme, 0.5 μg substrate, 50 μM DTT, 1 μL reaction buffer and added ddH2O to 3 μL each well) and the final ATP concentrations of was 50 μM. After incubation at room temperature, ADP-Glo™ solution and kinase detection reagent was added. The data was collected by the microplate reader. 1.5 Cellular thermal shift assay HCT-116 cells were cultured in cell culture dishes and treated with 5 μM compound 12 for 4 h. HCT-116 cells were collected, washed by PBS and cell suspensions were divided into 12 PCR tubes equally. Then,11 tubes were heated at 37, […] After that, cells were broken by ultr asonic treatment and centrifuged at 12000 rpm for 20 min. The supernatant was analyzed by western blot. 1.6 Biotin-pulldown assay After co-treated with 2 μM biotinylated compound and compound 12 for 12 h, HCT-116 cells were lysed with NP-40 containing PMSF and centrifuged at 14000 r for 30 min at 4 °C. Then, 40 μL supernatant was used as the input by adding 10 μL 5×SDS loading buffer, and the remains were mixed with Streptavidin Agarose (Novex, Carlsbad, CA, USA). After 6 h incuba tion at 4 °C, the beads were washed three times using lysis buffer and resuspended in 2× SDS loading buffer. HEK -293T cells overexpressed flag -tagged CDK8 were treated using above method. The samples were analyzed by western blot.

MGC-803 = experiment: Antiproliferative CCK-8 assay, MGC-803; assay type: cell-based; conditions: Homo sapiens; MGC-803, CCK-8 assay, means ± SD; read-out: GC50 (the source's name)
Excerpt: (§1) Compounds12, 13 and 30 were selected for further cell activity assessments based on the enzymatic activity assessment results. molm-13 and MV4-11(acute myeloid lineage leukaemia cells), MGC-803 (gastric cancer cell), MDA-MB-231(breast cancer cell), A375 (melanoma cell), A549 (lung cancer cell), HCT-116, SW-480 and HT-29 (colorectal cancer cells) were selected to evaluate antitumor activity in vitro, GES-1 (gastric mucosal epithelial cell) was selected to evaluate toxicity in vitro.
(§2) CO2 atmosphere incubator for 24 h. Then, medium with compound at the concentrations of 100, 20, 4, 0.8, 0.016 μM was added into each well for another 48 h and incubated with CCK-8 (10 μL) for 2 h at 37 °C. The absorbance value at 450 nm was measured by the microplate reader (PerkinElmer Envision). […]

molm-13 = experiment: Antiproliferative CCK-8 assay, molm-13; assay type: cell-based; conditions: Homo sapiens; molm-13, CCK-8 assay, means ± SD; read-out: GC50 (the source's name)
Excerpt: as §1, §2

GES-1 = experiment: In vitro toxicity CCK-8 assay, GES-1; assay type: cell-based; conditions: Homo sapiens, GES1, GES-1 gastric mucosal epithelial cell, read-out: GC50 (the source's name)
Excerpt: as §1, §2

HT-29 = experiment: Antiproliferative CCK-8 assay, HT-29; assay type: cell-based; conditions: Homo sapiens; HT-29, CCK-8 assay, means ± SD; read-out: GC50 (the source's name)
Excerpt: as §1, §2

MDA-MB-231 = experiment: Antiproliferative CCK-8 assay, MDA-MB-231; assay type: cell-based; conditions: Homo sapiens; MDA-MB-231, CCK-8 assay, means ± SD; read-out: GC50 (the source's name)
Excerpt: as §1, §2

A549 = experiment: Antiproliferative CCK-8 assay, A549; assay type: cell-based; conditions: Homo sapiens; A549, CCK-8 assay, means ± SD; read-out: GC50 (the source's name)
Excerpt: as §1, §2

SW480 = experiment: Antiproliferative CCK-8 assay, SW480; assay type: cell-based; conditions: Homo sapiens; SW480, CCK-8 assay, means ± SD; read-out: GC50 (the source's name)
Excerpt: as §1, §2

HCT-116 = experiment: Antiproliferative CCK-8 assay, HCT-116; assay type: cell-based; conditions: Homo sapiens; HCT-116, CCK-8 assay, means ± SD; read-out: GC50 (the source's name)
Excerpt: as §1, §2

MV4-11 = experiment: Antiproliferative CCK-8 assay, MV4-11; assay type: cell-based; conditions: Homo sapiens; MV4-11, CCK-8 assay, means ± SD; read-out: GC50 (the source's name)
Excerpt: as §1, §2

A375 = experiment: Antiproliferative CCK-8 assay, A375; assay type: cell-based; conditions: Homo sapiens, A-375; A375, CCK-8 assay, means ± SD; read-out: GC50 (the source's name)
Excerpt: as §1, §2

[1] = Caco-2 permeability determination; assay type: in vitro ADME; conditions: human; for Papp A→B: Caco-2, A→B; for Papp B→A: Caco-2, B→A
[2] = Caco-2, Caco-2, A→B, read-out: Recovery A→B
[3] = Caco-2, Caco-2, B→A, read-out: Recovery B→A

Compound	inhibition at 0.2 µM (CDK8) [%]	IC50 (CDK8) [nM]	other results
NC(=O)c1cccc(-c2cnc3[nH]ncc3c2)c1 [Compound 2]	35.2 ± 2.8		
NC(=O)c1cccc(-c2cnc(N)c(Cl)c2)c1 [Compound 4]	45.6 ± 4.2		
NC(=O)c1cccc(-c2ccc3[nH]ccc3c2)c1 [Compound 7]	59.1 ± 2.1	212 ± 6.1	
Cn1ccc2cc(-c3cccc(C(N)=O)c3)ccc21 [Compound 8]	51.7 ± 5.4	255 ± 4.5	
NC(=O)c1cccc(-c2ccc3occc3c2)c1 [Compound 9]	60.4 ± 4.3	190 ± 4.9	
NC(=O)c1cccc(-c2ccc3sccc3c2)c1 [Compound 10]	38.3 ± 2.2		
NC(=O)c1cccc(-c2cnc3[nH]cc(Cl)c3c2)c1 [Compound 11]	51.8 ± 4.3		
NC(=O)c1cccc(-c2cnc3[nH]cc(-c4ccsc4)c3c2)c1 [Compound 13]	70.4 ± 3.6	65.7 ± 3.1	IC50 (MGC-803): 9190 ± 2420 nM; IC50 (molm-13): 160 ± 20 nM; IC50 (GES-1): 24200 ± 3620 nM; IC50 (HT-29): 9310 ± 1670 nM; IC50 (MDA-MB-231): 31500 ± 1270 nM; IC50 (A549): 21800 ± 1660 nM; IC50 (SW480): 5450 ± 2820 nM; IC50 (HCT-116): 2480 ± 990 nM; IC50 (MV4-11): 360 ± 120 nM; IC50 (A375): 950 ± 520 nM
NC(=O)c1cccc(-c2cnc3[nH]cc(-c4cccs4)c3c2)c1 [Compound 14]	52.5 ± 2.8	186 ± 4.6	
NC(=O)c1cccc(-c2cnc3[nH]cc(-c4cn[nH]c4)c3c2)c1 [Compound 15]	49.1 ± 3.4		
Cn1cc(-c2c[nH]c3ncc(-c4cccc(C(N)=O)c4)cc23)cn1 [Compound 16]	29.5 ± 2.3		
CCOC(C)n1cc(-c2c[nH]c3ncc(-c4cccc(C(N)=O)c4)cc23)cn1 (centres unmarked) [Compound 17]	46.5 ± 1.8		
NC(=O)c1cccc(-c2cnc3[nH]cc(-c4cnn(C(F)F)c4)c3c2)c1 [Compound 18]	32.5 ± 4.9		
NC(=O)c1cccc(-c2cnc3[nH]cc(-c4ccccc4C(F)(F)F)c3c2)c1 [Compound 27]	15.9 ± 5.2		
NC(=O)c1cccc(-c2cnc3[nH]cc(-c4cccc(F)c4)c3c2)c1 [Compound 29]	23.1 ± 2.5		
NC(=O)c1cccc(-c2cnc3[nH]cc(-c4cccc(Cl)c4)c3c2)c1 [Compound 30]	65.5 ± 3.8	86.7 ± 6.5	IC50 (MGC-803): > 50000 nM; IC50 (molm-13): > 50000 nM; IC50 (GES-1): > 100000 nM; IC50 (HT-29): > 50000 nM; IC50 (MDA-MB-231): > 50000 nM; IC50 (A549): > 50000 nM; IC50 (SW480): > 50000 nM; IC50 (HCT-116): > 50000 nM; IC50 (MV4-11): > 50000 nM; IC50 (A375): > 50000 nM
NC(=O)c1cccc(-c2cnc3[nH]cc(-c4cccc(O)c4)c3c2)c1 [Compound 31]	30.5 ± 2.3		
COc1cccc(-c2c[nH]c3ncc(-c4cccc(C(N)=O)c4)cc23)c1 [Compound 32]	44 ± 3.8		
NC(=O)c1cccc(-c2cnc3[nH]cc(-c4cccc(C(F)(F)F)c4)c3c2)c1 [Compound 33]	34.6 ± 4.1		
NC(=O)c1cccc(-c2cnc3[nH]cc(-c4cccc(OC(F)(F)F)c4)c3c2)c1 [Compound 34]	23.4 ± 3.3		
NC(=O)c1cccc(-c2cnc3[nH]cc(-c4ccc(F)cc4)c3c2)c1 [Compound 35]	55.8 ± 4.6		
NC(=O)c1cccc(-c2cnc3[nH]cc(-c4ccc(Cl)cc4)c3c2)c1 [Compound 36]	61.6 ± 5.4	128 ± 3.8	
NC(=O)c1cccc(-c2cnc3[nH]cc(-c4ccc(O)cc4)c3c2)c1 [Compound 37]	28.3 ± 3.1		
COc1ccc(-c2c[nH]c3ncc(-c4cccc(C(N)=O)c4)cc23)cc1 [Compound 38]	26.4 ± 1.6		
NC(=O)c1cccc(-c2cnc3[nH]cc(-c4ccc(C(F)(F)F)cc4)c3c2)c1 [Compound 39]	22.3 ± 3.7		
NC(=O)c1cccc(-c2cnc3[nH]cc(-c4ccc(OC(F)(F)F)cc4)c3c2)c1 [Compound 40]	46.3 ± 1.9		
C[C@H]1O[C@@H](O[C@H]2[C@@H](O)C[C@H](O[C@H]3[C@@H](O)C[C@H](O[C@H]4CC[C@@]5(C)[C@H](CC[C@@H]6[C@@H]5C[C@@H](O)[C@]5(C)[C@@H](C7=CC(=O)OC7)CC[C@]65O)C4)O[C@@H]3C)O[C@@H]2C)C[C@H](O)[C@@H]1O [Digoxin]			efflux ratio ([1]; Caco-2): 6.2; recovery [1, 2]: 92.5%; recovery [1, 3]: 99.2%; Papp A→B [1]: 0.9 ×10⁻⁶ cm/s; Papp B→A [1]: 5.6 ×10⁻⁶ cm/s
CC(C)(C)NCC(O)COc1cccc2c1CC(O)C(O)C2 (centres unmarked) [Nadolol]			recovery [1, 3]: 111%; Papp A→B [1]: 0.2 ×10⁻⁶ cm/s; Papp B→A [1]: 0.5 ×10⁻⁶ cm/s
CC(C)NCC(O)COc1cccc2ccccc12 (centres unmarked) [Propranolol]			recovery [1, 2]: 99.9%; recovery [1, 3]: 107%; Papp A→B [1]: 40.2 ×10⁻⁶ cm/s; Papp B→A [1]: 34.1 ×10⁻⁶ cm/s
Cc1c(Br)c(Br)c2c3c1nc(N1CCNCC1)n3CCC2 [SEL-120-34A, reference compound]	82.5 ± 5.8	37.2 ± 2.5	IC50 (MGC-803): 16300 ± 1860 nM; IC50 (molm-13): 20 ± 10 nM; IC50 (GES-1): 55300 ± 3200 nM; IC50 (HT-29): 33800 ± 1400 nM; IC50 (MDA-MB-231): 9600 ± 810 nM; IC50 (A549): 12100 ± 370 nM; IC50 (SW480): 17700 ± 2100 nM; IC50 (HCT-116): 11300 ± 1900 nM; IC50 (MV4-11): 7 ± 1 nM; IC50 (A375): 5900 ± 1430 nM

Second part, led by results:

inhibition at 0.2 µM (CDK8) [%]	IC50 (CDK8) [nM]	Compound	other results
63 ± 4.5	106 ± 4.6	NC(=O)c1cccc(-c2cnc3[nH]ccc3n2)c1 [Compound 1]	
50.8 ± 2.3	177 ± 7.2	NC(=O)c1cccc(-c2ccc(N)nc2)c1 [Compound 3]	
55.7 ± 3.8	186 ± 4.5	NC(=O)c1cccc(-c2cncc3ccccc23)c1 [Compound 5]	
75.8 ± 5.9	64.5 ± 3.8	NC(=O)c1cccc(-c2cnc(N)c3ccccc23)c1 [Compound 6]	
57.4 ± 1.4	158 ± 4.3	NC(=O)c1cccc(-c2cnc3[nH]cc(-c4ccccc4)c3c2)c1 [Compound 19]	
58.7 ± 3.3	161 ± 3.1	NC(=O)c1cccc(-c2cnc3[nH]cc(-c4ccccc4F)c3c2)c1 [Compound 20]	
23.6 ± 2.6		NC(=O)c1cccc(-c2cnc3[nH]cc(-c4ccccc4Cl)c3c2)c1 [Compound 21]	
36.2 ± 2.7		NC(=O)c1cccc(-c2cnc3[nH]cc(-c4ccccc4O)c3c2)c1 [Compound 22]	
51.6 ± 2.6	193 ± 6.6	Cc1ccccc1-c1c[nH]c2ncc(-c3cccc(C(N)=O)c3)cc12 [Compound 23]	
24.6 ± 2.4		CCc1ccccc1-c1c[nH]c2ncc(-c3cccc(C(N)=O)c3)cc12 [Compound 24]	
62 ± 4.6	136 ± 5.3	COc1ccccc1-c1c[nH]c2ncc(-c3cccc(C(N)=O)c3)cc12 [Compound 25]	
33.1 ± 4.2		CC(C)c1ccccc1-c1c[nH]c2ncc(-c3cccc(C(N)=O)c3)cc12 [Compound 26]	
16.9 ± 2.2		NC(=O)c1cccc(-c2cnc3[nH]cc(-c4ccccc4OC(F)(F)F)c3c2)c1 [Compound 28]	
